From patent US20030166537A1, “Use of GDNF for treating corneal defects” (Biopharm Gesellschaft Zur Biotechnologischen Entwicklung …, priority 1999, published 2003)
One block for each molecule: values may come before it.

How the values were obtained:
[1] = system: corneal epithelial cells from the SV40 transformed cell line; test: in vitro wound healing assay (scratch wound), cell line; assay type: cell-based, human; details: 18 h, control 20%±4.5
Protocol: (§1) For in vitro wound healing assays primary corneal epithelial cells and cells from the corneal epithelial cell line were seeded at a density of 5×10^5 onto 60 mm plastic dishes with 2 mm grid (Sarstedt, Numbrecht, Germany) and cultured for 2 days until subconfluency. For experiments with artemin primary cultured rabbit corneal epithelial cells were used. These cells had been isolated with Dispase (1,2 U/ml) and trypsin/EDTA. Rabbit cells had been cultured in medium 500 with additives (Cascade Biologies).
(§2) The cell layer was injured under the microscope by inducing several parallel scratches with a soft plastic cell scrubber (Falcon, Becton and Dickinson, Heidelberg, Germany). The tip of the scrubber was cut and measured about 1 mm and consequently the width of the scratch in the cell layer was also about 1 mm. Selected areas in the dishes were marked with a very fine marker pen and consecutive images were taken at different time points at 5×magnification under an inverted phase contrast microscope (Axiovert 25, Zeiss, Jena, Germany) equipped with a video camera. Following the experimental injury dishes were incubated in SHEM medium either containing no growth factors (control) or containing either GDNF (250 ng/ml) (recombinant human GDNF expressed in E. coli), NGF (250 ng/ml) (Boehringer Mannheim, Germany) or EGF ([…]). For experiments investigating artemin cells were cultured in medium 500 without additives and 250 ng artemin was added. For each condition four representative areas were evaluated within three dishes. The mean diameter of the scratch in each representative area was set as 100% at the beginning of the experiment. 18 hours later the mean diameter of the same scratch was calculated again and expressed in percent of the diameter at the beginning of the experiment.

[2] = system: ERK1, ERK2, JNK1 and JNK2; test: western blot of phosphorylated MAP kinases in cultured human corneal stromal keratocytes; assay type: cell-based; details: for phosphorylation of ERK1 and ERK2: 200 ng/ml factor vs control; for phosphorylation of JNK1: vs serum-free medium
Protocol: (§3) In order to evaluate the effect of GDNF and other neurotrophic factors on the activation of signal transduction pathways in cultured corneal epithelial and stromal keratocytes, western blots were performed for detecting an accumulation of phosphorylated MAP kinases ERK and JNK in the presence of GDNF, NGF and BDNF. Human stromal keratocytes were cultured in RPMI 1640 medium containing L-glutamine (glutaMAX) or DMEM with 10% FBS for one day and starved in serum-free medium for another day. Cultures were then washed with PBS and incubated in serum-free DMEM without additives or with recombinant human GDNF (200 ng/ml), recombinant human NGF (200 ng/ml) and recombinant human BDNF (200 ng/ml) (all obtained from R & D Systems, Mineapolis, Minn., USA) for 30 min. Some cultures were incubated with an inhibitor of MAP kinases (PD 98059, Torcris Cookson Ballwin, Mo., USA) at 100 μM for 1 h prior to exposure to neurotrophines. After washing with PBS, culture cells were solubilized in lysis buffer containing 50 mM Tris-Cl (pH 8.0), 150 mM NaCl, 0.02% sodium azide, 100 μg/ml PMSF, 1% Triton X-100 and a mixture of several protein inhibitors (Complete®, Boehringer Mannheim) (one tablet/50 ml buffer). 50 μg total protein per lane was fractionated by a 10% STS-MOPS NUPAGE Bis-tris gel (NOVEX, San Diego, Calif., USA) and blotted onto nitrocellulose membrane. Membranes were stained with diluted polyclonal antibodies against ERK1, ERK2, JNK1 and JNK2 (Santa Cruz Biotechnology, Santa Cruz, Calif., USA). Also a polyclonal antibody was used which recognizes the […] form of either ERK1 and ERK2 which was raised against the catalytic core of the phosphorylated threonine residue 183 and tyrosine residue 185 of mammalian ERK2. Similarily, a polyclonal antibody recognizing the phosphorylated form of JNK1 and JNK2 was used (both from Promega). In the last step the membranes were visualized with the ECL western blot analysis system (Amersham).

[3] = system: ERK1, ERK2, JNK1 and JNK2; test: western blot of phosphorylated MAP kinases in cultured human corneal epithelium; assay type: cell-based; details: for phosphorylation of ERK1 and ERK2: 200 ng/ml factor vs serum-free control medium; for phosphorylation of ERK1 and ERK2 / phosphorylation of JNK1/2: human epithelial cells; for phosphorylation of JNK1/2: vs control
Protocol: as §3

[4] = system: primary human corneal epithelial cells; test: in vitro wound healing assay (scratch wound), primary cells; assay type: cell-based; details: 18 h, control less than 10%
Protocol: as §1, §2

corneal epithelial cells = test: in vitro wound healing model with herbimycin A; assay type: cell-based; details: 10 μM Herbimycin A in presence of 250 ng/ml GDNF; 18 hours
Protocol: as §1
The cell layer was injured under the microscope by inducing several parallel scratches with a soft plastic cell scrubber (Falcon, Becton and Dickinson, Heidelberg, Germany). The tip of the scrubber was cut and measured about 1 mm and consequently the width of the scratch in the cell layer was also about 1 mm. Selected areas in the dishes were marked with a very fine marker pen and consecutive images were taken at different time points at 5×magnification under an inverted phase contrast microscope (Axiovert 25, Zeiss, Jena, Germany) equipped with a video camera. […] For each condition four representative areas were evaluated within three dishes. […] 18 hours later the mean diameter of the same scratch was calculated again and expressed in percent of the diameter at the beginning of the experiment. […]

Ret = target: T1, Ret (Homo sapiens, UniProt P07949); test: immuno-precipitation and western blot of tyrosine-phosphorylated Ret in cultured corneal epithelial cells; assay type: cell-based; details: cells pretreated with herbimycin A, then GDNF 10 minutes
T1 construct: The level of phosphorylated Ret (approximately 150 kD) in cultured corneal epithelial cells (control) was low prior to addition of GDNF; endogenous in cells; host or cells: SV40-transformed human corneal epithelial cell line (Araki-Sasaki et al., 1995)

[5] = system: FAK, Pyk2, cRaf, MEK1, Erk 1 and 2, Elk, RSK; test: western blot of phosphorylated intracellular signaling proteins in corneal epithelial cells; assay type: cell-based, human; details: preincubation with herbimycin A for two hours
Protocol: In order to investigate which protein kinase cascades are activated by GDNF and artemin, corneal epithelial cells from the cell line were seeded at a density of 5×10^5 cells/75 cm^2 and cultured in SHEM with 10% FBS for one day. Cultures were then washed with PBS and incubated in serum-free SHEM without additives or with GDNF (200 ng/ml) or with artemin (250 ng) for 10 to 40 minutes. After washing with PBS, cultured cells were solubilized in lysis buffer containing 50 mM Tris2Cl (pH8.0), 150 mM NaCl, 0.02% sodium azide, 100 μg/ml phenylmethylsulfonyl fluoride, 1 mM Na3VO4, 1% Triton X-100 and a mixture of several protease inhibitors [complete™, Boehringer Mannheim (1 tablet/30 ml buffer)]. 80 μg total protein per lane was fractionated by NuPAGE 10% SDS-MOPS-Bis-Tris gel or NuPAGE 3-8% Tris-acetate gel (all from NOVEX, San Diego, Calif.) and blotted onto a nitrocellulose membrane. Phosphorylated proteins were detected with phospho-specific antibodies and visualized with the ECL western blot analysis system (Amersham). Antibodies against phospho-Raf(ser259), phospho-MEK1/2(ser217/221), phospho-MAPK (Erk1/2) (thr202/tyr204), phospho-p90 ribosomal S6 kinase (RSK) (ser381) and phospho-Elk-1(ser383) were obtained from New England Biolabs (Beverly, Mass.). Antibody against phospho-FAK (tyr397/tyr407/tyr576/tyr577/tyr861/tyr925) and phospho-Pyk2 (tyr402/tyr579/tyr/580/tyr881) were purchased from Biosource (Camarillo, Calif., USA). A monoclonal antibody against phospho-tyrosine came from Sigma (Deisenhofen, Germany).

[6] = system: primary rabbit corneal epithelial cells; test: in vitro wound healing assay (scratch wound), artemin; assay type: cell-based; details: 10 ng/ml; within 6 h; vs control
Protocol: as §1
The cell layer was injured under the microscope by inducing several parallel scratches with a soft plastic cell scrubber (Falcon, Becton and Dickinson, Heidelberg, Germany). The tip of the scrubber was cut and measured about 1 mm and consequently the width of the scratch in the cell layer was also about 1 mm. Selected areas in the dishes were marked with a very fine marker pen and consecutive images were taken at different time points at 5×magnification under an inverted phase contrast microscope (Axiovert 25, Zeiss, Jena, Germany) equipped with a video camera. […] For each condition four representative areas were evaluated within three dishes. […] 18 hours later the mean diameter of the same scratch was calculated again and expressed in percent of the diameter at the beginning of the experiment.

[7] = system: primary rabbit corneal epithelial cells; test: single cell clonal growth assay (colony formation, clonal proliferation); assay type: cell-based; details: 10 ng/ml; day 6; control 40±20
Text: In order to evaluate the effect of GDNF on corneal proliferation, recombinant human GDNF was used (R&D, Minneapolis, Minn., USA). For the evaluation of the effect on corneal epithelial proliferaton a single cell clonal growth model was utilized which allows to determine the effect of the given growth factor on both colony formation as well as clonal expansion (Kruse et al., 1991). New Zealand white rabbits were housed and treated according to the ARVO Resolution of Animals in Research and under observation of German Federal Laws and the laws of the State of Baden-Württemberg. Prior to sacrifice with an intravenous overdose of pentobarbital, they received an intramuscular injection of xylazine hydrochloride and ketamine hydrochloride. The details of the clonal growth assay are described in Kruse et al. (1991). 5000 viable cells were seeded in each 16 mm dish in serum-free medium MCDB 151 with a supplement (S) of insulin (5 μg/ml), transferrin (5 μg/ml), selenium (5 ng/ml) and hydrocortisone (5 μg/ml) (all from Sigma, Deisenhofen, Germany). […] This quantification was facilitated by the use of dishes which contained a grit on the bottom which is roughly 2 mm wide (from Sarstedt, Newton, N.C., USA). For data collection the entire surface area of four randomly selected dishes for each condition was screened. Furthermore, the number of cells per colony was determined in 75 randomly selected colonies for each condition. Furthermore, the total number of cells/dish was calculated in order to carry out an evaluation for artemin. In order to stimulate the cellular proliferation, GDNF (50 or 200 ng/ml) or artemin (250 ng/ml) was added to the medium. In order to estimate the rate of proliferation after 12 days (a time when neighbouring colonies started to grow into each other and, therefore, prevented numerical quantification) dishes were fixed in −20° C. methanol and stained with methylene blue.
All experiments examining the effect of GDNF on corneal proliferation were performed in triplicate with cells from different donors. The influence of growth factor on colony formation, colony size and cell number was studied using one-way analysis of variance. […] Student's t-test was employed to determine which differences were significant after analysis of variance.

T1 sequence (P07949 29-1114): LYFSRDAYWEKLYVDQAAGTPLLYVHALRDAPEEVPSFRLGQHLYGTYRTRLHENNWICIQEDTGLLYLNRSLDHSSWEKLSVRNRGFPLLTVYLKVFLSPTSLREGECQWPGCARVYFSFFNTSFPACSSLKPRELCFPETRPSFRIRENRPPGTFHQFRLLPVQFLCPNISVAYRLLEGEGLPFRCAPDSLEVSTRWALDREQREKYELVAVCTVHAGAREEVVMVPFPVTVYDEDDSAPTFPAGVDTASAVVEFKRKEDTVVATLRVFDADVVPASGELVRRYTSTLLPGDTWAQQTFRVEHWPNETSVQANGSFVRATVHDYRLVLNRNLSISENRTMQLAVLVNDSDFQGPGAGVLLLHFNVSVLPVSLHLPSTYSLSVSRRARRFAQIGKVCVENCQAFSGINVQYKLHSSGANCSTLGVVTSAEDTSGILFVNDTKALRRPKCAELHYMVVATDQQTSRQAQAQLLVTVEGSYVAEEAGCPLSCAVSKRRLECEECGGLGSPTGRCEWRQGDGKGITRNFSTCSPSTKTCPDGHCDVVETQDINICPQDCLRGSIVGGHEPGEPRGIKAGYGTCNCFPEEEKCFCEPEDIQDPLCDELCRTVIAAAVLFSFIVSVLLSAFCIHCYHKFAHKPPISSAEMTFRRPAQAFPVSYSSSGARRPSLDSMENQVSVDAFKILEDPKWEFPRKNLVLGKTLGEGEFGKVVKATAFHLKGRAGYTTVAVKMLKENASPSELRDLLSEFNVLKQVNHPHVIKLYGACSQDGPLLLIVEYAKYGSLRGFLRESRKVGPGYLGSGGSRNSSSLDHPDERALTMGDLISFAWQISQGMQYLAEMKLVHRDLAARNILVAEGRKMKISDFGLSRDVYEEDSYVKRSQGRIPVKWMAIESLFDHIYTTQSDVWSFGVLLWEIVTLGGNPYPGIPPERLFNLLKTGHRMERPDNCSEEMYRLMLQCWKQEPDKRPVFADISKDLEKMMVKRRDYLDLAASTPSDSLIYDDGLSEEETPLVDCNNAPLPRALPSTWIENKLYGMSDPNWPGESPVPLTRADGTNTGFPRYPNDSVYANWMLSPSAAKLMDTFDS

Molecule: NGF: recombinant human NGF, neurotrophic factor used as comparison / positive control
gap in the cell monolayer filled ([1]; 250 ng/ml): 27%±7.1
activated JNK2 [2]: not induced
phosphorylation of ERK1 and ERK2 [2]: induced
phosphorylation of JNK1 [2]: weakly induced
phosphorylation of ERK1 and ERK2 [3]: increased
phosphorylation of JNK1/2 [3]: not induced
gap in the cell monolayer filled ([4]; 250 ng/ml): 19.6%±3.1

GDNF-dependent tyrosine phosphorylation of Ret (Ret): specifically inhibited
Molecule: CO[C@H]1[C@@H](OC)C[C@H](C)[C@@H](OC)C2=CC(=O)C=C(NC(=O)/C(C)=C/C=C\[C@H](OC)[C@@H](OC(N)=O)/C(C)=C/[C@@H]1C)C2=O [herbimycin A, reference compound]
wound gap closed (corneal epithelial cells): 19.2±5.5%
GDNF-dependent phosphorylation of Erk [5]: significantly decreased
GDNF-dependent phosphorylation of FAK [5]: significantly decreased
GDNF-dependent phosphorylation of cRaf [5]: significantly decreased

Molecule: EGF: growth factor used as positive control at 10 ng/ml
gap in the cell monolayer filled ([1]; 10 ng/ml): 44.6±9%
gap in the cell monolayer filled ([4]; 10 ng/ml): 19.0%±8.6
in vitro wound healing [6]: significant increase
total number of colonies [7]: 58±18

Molecule: COc1cccc(-c2cc(=O)c3ccccc3o2)c1N [PD 98059, reference compound]
effect on phosphorylation of ERK1 in presence of BDNF ([2]; PD 98059 with BDNF 200 ng/ml): remained unchanged
effect on GDNF-induced phosphorylation of ERK1 ([2]; PD 98059 with GDNF 200 ng/ml): inhibited
effect on NGF-induced phosphorylation of ERK1 ([2]; PD 98059 with NGF 200 ng/ml): inhibited
effect on BDNF-induced phosphorylation of ERK1 and ERK2 ([3]; PD 98059 100 μM 1 h before BDNF 200 ng/ml, epithelial cells): not inhibited
effect on GDNF-induced phosphorylation of ERK1 and ERK2 ([3]; PD 98059 100 μM 1 h before GDNF 200 ng/ml, epithelial cells): prevented
effect on NGF-induced phosphorylation of ERK1 and ERK2 ([3]; PD 98059 100 μM 1 h before NGF 200 ng/ml, epithelial cells): prevented

B1: BDNF: recombinant human BDNF, neurotrophic factor used for comparison (protein, UniProt P23560 19-247, looked up)
Neurotrophic factor BDNF …: APMKEANIRGQGGLAYPGVRTHGTLESVNGPKAGSRGLTSLADTFEHVIEELLDEDQKVRPNEENNKDADLYTSRVMLSSQVPLEPPLLFLLEEYKNYLDAANMSMRVRRHSDPARRGELSVCDSISEWVTAADKKTAVDMSGGTVTVLEKVPVSKGQLKQYFYETKCNPMGYTKEGCRGIDKRHWNSQCRTTQSYVRALTMDSKKRIGWRFIRIDTSCVCTLTIKRGR
activated JNK2 [2]: not induced
phosphorylation of ERK1 and ERK2 [2]: did not induce
phosphorylation of JNK1 [2]: weakly induced
phosphorylation of ERK1 and ERK2 [3]: increased
phosphorylation of JNK1/2 [3]: not induced
